Target: T1, β-secretase (BACE) (Homo sapiens, UniProt P56817)
T1 construct: purchased Panvera
Experiment: BACE FS1 % Inhibition Assay
Format: biochemical
Summary of the method: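 Percent inhibition per compound concentration was referenced to vehicle-treated enzyme and no-enzyme wells. Enzyme at a 4 μg/mL working stock plus compound was mixed for 20 min at room temperature before the FS1 substrate (300 μg/mL working stock) was added for a 1 h room-temperature reaction.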

T1 sequence (P56817 46-501): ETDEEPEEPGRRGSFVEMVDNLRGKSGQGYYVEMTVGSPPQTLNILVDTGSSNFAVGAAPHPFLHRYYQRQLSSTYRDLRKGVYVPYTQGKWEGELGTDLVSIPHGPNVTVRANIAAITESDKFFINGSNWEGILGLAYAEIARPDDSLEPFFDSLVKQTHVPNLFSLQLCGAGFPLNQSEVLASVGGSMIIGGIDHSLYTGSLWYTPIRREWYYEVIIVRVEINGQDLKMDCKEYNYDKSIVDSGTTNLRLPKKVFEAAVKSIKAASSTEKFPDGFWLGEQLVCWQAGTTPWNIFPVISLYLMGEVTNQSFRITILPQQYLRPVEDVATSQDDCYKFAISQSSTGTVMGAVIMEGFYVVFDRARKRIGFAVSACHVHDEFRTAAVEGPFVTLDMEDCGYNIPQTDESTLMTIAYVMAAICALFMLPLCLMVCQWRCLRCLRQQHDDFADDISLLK

Structure (SMILES) | % Inhibition (FS) (0.3 μM test compound) [%] | % Inhibition (FS) (1 μM test compound) [%] | % Inhibition (FS) (3 μM test compound) [%] | % Inhibition (FS) (0.3 μM compound, FS1 substrate) [%] | % Inhibition (FS) (1 μM compound, FS1 substrate) [%] | % Inhibition (FS) (3 μM compound, FS1 substrate) [%] | % Inhibition (FS) (10 μM test compound) [%]
CC(C)CC(=O)NC[C@@H](C(C)C)N1Cc2cc(Oc3ccccc3)ccc2N=C1N [Compound 563] | 101 | 119 | 127 | – | – | – | –
CN(C(=O)c1cccc(CN2Cc3cc([S+]([O-])c4ccccc4)ccc3N=C2N)c1)C1CCCCC1 (centres unmarked) [Compound 549] | <30 | 30 | 71 | – | – | – | –
NC1=Nc2ccc(Oc3ccccc3)cc2CN1CCCNC1CCCCC1 [Compound 403] | <30 | <30 | 66 | – | – | – | –
CN(C(=O)CCC(C1CCCCC1)N1Cc2cc(Oc3ccccc3)ccc2N=C1N)C1(C(=O)O)CCCCC1 (centres unmarked) [Compound 741] | – | – | – | −48 | −38 | −25 | –
NC1=Nc2ccc(-c3cccc(CO)c3)cc2CN1CCNC(=O)Cc1ccccc1 [Compound 599] | <30 | <30 | 65 | – | – | – | –
CC1CCC(C(=O)NCCN2Cc3cc(Oc4ccccc4)ccc3N=C2N)CC1 (centres unmarked) [Compound 191] | <30 | 46 | 88 | – | – | – | –
NC1=Nc2ccc(Oc3ccccc3)cc2CN1Cc1cccc(C(=O)N2CCCC3CCCCC32)c1 (centres unmarked) [Compound 212] | <30 | <30 | 32 | – | – | – | –
CCCC=Cc1ccc2c(c1)CN(CCNC(=O)C1CCCCC1)C(N)=N2 [Compound 577] | <30 | <30 | <30 | – | – | – | –
NC1=Nc2ccc(-c3ccccc3F)cc2CN1CCNC(=O)C1CCC1 [Compound 642] | 37 | 63 | 96 | – | – | – | –
NC1=Nc2ccc(-c3ccc4ccccc4c3)cc2CN1CCNC(=O)C1CCC1 [Compound 663] | – | – | – | <30 | <30 | <30 | –
COc1ccc(Sc2ccc3c(c2)CN(Cc2cccc(C(=O)N(C)C4CCCCC4)c2)C(N)=N3)cc1OC [Compound 411] | <30 | <30 | 55 | – | – | – | –
CC1CCC(NC(=O)c2cccc(CN3Cc4cc(Oc5ccccc5)ccc4N=C3N)c2)CC1 (centres unmarked) [Compound 213] | <30 | <30 | <30 | – | – | – | –
CN(C(=O)c1cccc(CN2Cc3cc(Oc4ccccc4C4CCCC4)ccc3N=C2N)c1)C1CCCCC1 [Compound 512] | <30 | <30 | 51 | – | – | – | –
COc1cccc(C(=O)NCCN2Cc3cc(Oc4ccccc4)ccc3N=C2N)c1 [Compound 217] | <30 | <30 | 56 | – | – | – | –
CC(=O)Nc1cccc(-c2ccc3c(c2)CN(Cc2cccc(C(=O)N(C)C4CCCCC4)c2)C(N)=N3)c1 [Compound 166] | <30 | 37 | 74 | – | – | – | –
CC(=O)Nc1ccc(C(=O)NCCN2Cc3cc(-c4cccc(CO)c4)ccc3N=C2N)cc1 [Compound 593] | <30 | <30 | <30 | – | – | – | –
CN(C(=O)CCC(C1CCCCC1)N1Cc2cc(Oc3ccccc3)ccc2N=C1N)C1CCC(C(=O)OCc2ccccc2)CC1 (centres unmarked) [Compound 760] | – | – | – | <30 | 44 | 89 | –
CN(C(=O)c1cccc(CN2Cc3cc(Oc4ccccc4-c4ccccc4)ccc3N=C2N)c1)C1CCCCC1 [Compound 234] | <30 | 57 | 43 | – | – | – | –
CN(C)c1cccc(Oc2ccc3c(c2)CN(Cc2cccc(C(=O)N(C)C4CCCCC4)c2)C(N)=N3)c1 [Compound 479] | <30 | <30 | 81 | – | – | – | –
NC1=Nc2ccc(Oc3ccccc3)cc2CN1C(CC(=O)NC1CCCCC1)c1ccccc1 (centres unmarked) [Compound 299] | <30 | <30 | <30 | – | – | – | –
CCCC(CCCC(=O)NC1CCCCCC1)N1Cc2cc(Oc3ccccc3)ccc2N=C1N (centres unmarked) [Compound 137] | – | – | 82 | – | – | – | 107
NC1=Nc2ccc(Oc3ccccc3)cc2CN1Cc1cccc(C(=O)N2CCCCC2)c1 [Compound 443] | <30 | 39 | 67 | – | – | – | –
CC(=O)N1CCC(C(=O)NCCN2Cc3cc(-c4ccccc4)ccc3N=C2N)CC1 [Compound 702] | – | – | – | <30 | <30 | <30 | –
NC1=Nc2ccc(Oc3ccccc3)cc2CN1C1CCCN(C(=O)C2CCCCC2)C1 (centres unmarked) [Compound 611] | <30 | 36 | <30 | – | – | – | –

— patent US8426429B2, “2-amino-quinazoline derivatives useful as inhibitors of β-secretase (BACE)” (Jansssen Pharmaceutica N.V., priority 2004, dated 2013)
